Test results from patent EP0076478A1, “Linear kinetic determination of bicarbonate in body fluids” (BOEHRINGER MANNHEIM CORPORATION, priority 1981, dated 1983).

Experiments:
Format in all cases: biochemical
MDH (porcine heart) = target: T1, MDH (porcine heart) (Sus scrofa, UniProt P00346); assay: Separate enzyme assay of MDH in the presence of varying amounts of oxamate
T1 construct: purchased Boehringer Mannheim Corporation, Indianapolis, Indiana
T1 sequence (P00346 25-338): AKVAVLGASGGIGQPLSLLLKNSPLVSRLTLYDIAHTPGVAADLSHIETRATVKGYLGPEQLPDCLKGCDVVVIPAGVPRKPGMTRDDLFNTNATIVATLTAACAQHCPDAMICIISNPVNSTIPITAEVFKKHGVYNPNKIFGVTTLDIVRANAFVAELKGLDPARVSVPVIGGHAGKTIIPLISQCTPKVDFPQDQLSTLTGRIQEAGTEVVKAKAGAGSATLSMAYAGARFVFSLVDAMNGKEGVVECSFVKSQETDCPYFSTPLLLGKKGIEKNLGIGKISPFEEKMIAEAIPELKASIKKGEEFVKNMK

PEPC (wheat germ) = assay: Separate enzyme assay of PEPC in the presence of varying amounts of oxamate; settings: for PEPC % Activity: average of three replicates
LDH = assay: Inhibition of reaction III (oxidation of NADH by pyruvate, catalysed by serum LDH) by oxamate; settings: for NADH oxidized: 10 minutes, 340 nm, 37°C
Description: Using the same materials and methodology of the end-point determination described in Example III, the effectiveness of oxamate as an inhibitor of reaction III was determined. First, reaction III was followed by […] of oxamate to serum.with normal and supranormal LDH activities up to 2000 U/1 (one U/1 is an enzyme activity unit which catalyzes the transformation of one micromole per liter of pyruvate per minute at 37°C). In order to magnify the spectrophotometric signal, the sample volume was increased from 7.5 microliters to 50 microliters. The oxidation of NADH was followed for 10 minutes at 340 nm and 37°C, and the concentration of NADH oxidized was calculated from the change in absorbance over the 10 minute period.

[1] = concentrations of oxamate up to 40 mmol/l

NC(=O)C(=O)[O-].[Na+] [oxamate, sodium oxamate]
activity at 5000 µM (MDH (porcine heart); Oxamate 5 mmol/l, average of three replicates): 102 ± 2%
activity at 10000 µM (MDH (porcine heart); Oxamate 10 mmol/l, average of three replicates): 102 ± 2%
activity at 20000 µM (MDH (porcine heart); Oxamate 20 mmol/l, average of three replicates): 99 ± 1%
activity at 40000 µM (MDH (porcine heart); Oxamate 40 mmol/l, average of three replicates): 98 ± 5%
activity at 80000 µM (MDH (porcine heart); Oxamate 80 mmol/l, average of three replicates): 92 ± 2%
effect on MDH (MDH (porcine heart); [1]): no effect
effect on MDH (MDH (porcine heart); varying amounts of oxamate): no significant effect
PEPC % Activity (PEPC (wheat germ); Oxamate 5 mmol/l): 102 ± 2%
PEPC % Activity (PEPC (wheat germ); Oxamate 10 mmol/l): 95 ± 11%
PEPC % Activity (PEPC (wheat germ); Oxamate 20 mmol/l): 103 ± 1%
PEPC % Activity (PEPC (wheat germ); Oxamate 40 mmol/l): 99 ± 2%
PEPC % Activity (PEPC (wheat germ); Oxamate 80 mmol/l): 86 ± 4%
effect on PEPC (PEPC (wheat germ); [1]): no effect
effect on PEPC (PEPC (wheat germ); varying amounts of oxamate): no significant effect
NADH oxidized (LDH; 2.5 mmol/l oxamate, serum LDH 282 U/l, 2 mmol/l pyruvate added): 0 µmol/L
NADH oxidized (LDH; 2.5 mmol/l oxamate, serum LDH 334 U/l, 2 mmol/l pyruvate added): 1.3 µmol/L
NADH oxidized (LDH; 2.5 mmol/l oxamate, serum LDH 340 U/l, 2 mmol/l pyruvate added): 1.3 µmol/L
NADH oxidized (LDH; 2.5 mmol/l oxamate, serum LDH 402 U/l, 2 mmol/l pyruvate added): 0 µmol/L
NADH oxidized (LDH; 2.5 mmol/l oxamate, serum LDH 508 U/l, 2 mmol/l pyruvate added): 3.5 µmol/L
NADH oxidized (LDH; 2.5 mmol/l oxamate, serum LDH 600 U/l, 2 mmol/l pyruvate added): 2.6 µmol/L
NADH oxidized (LDH; 2.5 mmol/l oxamate, serum LDH 1200 U/l, 2 mmol/l pyruvate added): 7.7 µmol/L
NADH oxidized (LDH; 2.5 mmol/l oxamate, serum LDH 1470 U/l, sample not spiked with pyruvate): 1.0 µmol/L
NADH oxidized (LDH; 2.5 mmol/l oxamate, serum LDH normal (average of 10 normal sera), 2 mmol/l pyruvate added): 1.4 µmol/L
NADH oxidized (LDH; 5 mmol/l oxamate, serum LDH 282 U/l, 2 mmol/l pyruvate added): 0 µmol/L
NADH oxidized (LDH; 5 mmol/l oxamate, serum LDH 334 U/l, 2 mmol/l pyruvate added): 0.3 µmol/L
NADH oxidized (LDH; 5 mmol/l oxamate, serum LDH 340 U/l, 2 mmol/l pyruvate added): 0 µmol/L
NADH oxidized (LDH; 5 mmol/l oxamate, serum LDH 402 U/l, 2 mmol/l pyruvate added): 0 µmol/L
NADH oxidized (LDH; 5 mmol/l oxamate, serum LDH 508 U/l, 2 mmol/l pyruvate added): 0.3 µmol/L
NADH oxidized (LDH; 5 mmol/l oxamate, serum LDH 600 U/l, 2 mmol/l pyruvate added): 0.2 µmol/L
NADH oxidized (LDH; 5 mmol/l oxamate, serum LDH 1200 U/l, 2 mmol/l pyruvate added): 0.9 µmol/L
NADH oxidized (LDH; 5 mmol/l oxamate, serum LDH 1470 U/l, sample not spiked with pyruvate): 0 µmol/L
NADH oxidized (LDH; 5 mmol/l oxamate, serum LDH normal (average of 10 normal sera), 2 mmol/l pyruvate added): 0.5 µmol/L
NADH oxidized (LDH; 10 mmol/l oxamate, serum LDH 282 U/l, 2 mmol/l pyruvate added): 0 µmol/L
NADH oxidized (LDH; 10 mmol/l oxamate, serum LDH 334 U/l, 2 mmol/l pyruvate added): 0 µmol/L
NADH oxidized (LDH; 10 mmol/l oxamate, serum LDH 340 U/l, 2 mmol/l pyruvate added): 0 µmol/L
NADH oxidized (LDH; 10 mmol/l oxamate, serum LDH 402 U/l, 2 mmol/l pyruvate added): 0 µmol/L
NADH oxidized (LDH; 10 mmol/l oxamate, serum LDH 508 U/l, 2 mmol/l pyruvate added): 0.1 µmol/L
NADH oxidized (LDH; 10 mmol/l oxamate, serum LDH 600 U/l, 2 mmol/l pyruvate added): 0 µmol/L
NADH oxidized (LDH; 10 mmol/l oxamate, serum LDH 1200 U/l, 2 mmol/l pyruvate added): 0.3 µmol/L
NADH oxidized (LDH; 10 mmol/l oxamate, serum LDH 1470 U/l, sample not spiked with pyruvate): 0 µmol/L
NADH oxidized (LDH; 10 mmol/l oxamate, serum LDH 2000 U/l, 2 mmol/l pyruvate added): 0 µmol/L
NADH oxidized (LDH; 10 mmol/l oxamate, serum LDH normal (average of 10 normal sera), 2 mmol/l pyruvate added): 0.3 µmol/L
NADH oxidized (LDH; 20 mmol/l oxamate, serum LDH 282 U/l, 2 mmol/l pyruvate added): 0 µmol/L
NADH oxidized (LDH; 20 mmol/l oxamate, serum LDH 334 U/l, 2 mmol/l pyruvate added): 0 µmol/L
NADH oxidized (LDH; 20 mmol/l oxamate, serum LDH 340 U/l, 2 mmol/l pyruvate added): 0 µmol/L
NADH oxidized (LDH; 20 mmol/l oxamate, serum LDH 402 U/l, 2 mmol/l pyruvate added): 0 µmol/L
NADH oxidized (LDH; 20 mmol/l oxamate, serum LDH 508 U/l, 2 mmol/l pyruvate added): 0 µmol/L
NADH oxidized (LDH; 20 mmol/l oxamate, serum LDH 600 U/l, 2 mmol/l pyruvate added): 0 µmol/L
NADH oxidized (LDH; 20 mmol/l oxamate, serum LDH 1200 U/l, 2 mmol/l pyruvate added): 0 µmol/L
NADH oxidized (LDH; 20 mmol/l oxamate, serum LDH 1470 U/l, sample not spiked with pyruvate): 0 µmol/L
NADH oxidized (LDH; 20 mmol/l oxamate, serum LDH 2000 U/l, 2 mmol/l pyruvate added): 0 µmol/L
NADH oxidized (LDH; 20 mmol/l oxamate, serum LDH normal (average of 10 normal sera), 2 mmol/l pyruvate added): 0 µmol/L
LDH activity (LDH; oxamate concentration of 10-20 mmol/l): completely inhibited
